# Experimental data from PubChem BioAssay AID1259407 (Chemical Carcinogenesis Research Information System (CCRIS), 2018).
# Active and inactive are the calls of the source. The rule behind the calls is not given here.
# Test system: CCRIS mutagenicity, Ames/micronucleus/aberration tests
# Assay: CCRIS mutagenicity studies
structure (smiles),measurement,setting,value
COc1cc2c(c3oc(=O)c4c(c13)CCC4=O)[C@@H]1C=CO[C@@H]1O2,mutagenic call,"End Point: IN VITRO MICRONUCLEUS, Test System: AHH-1 CELLS, Metabolic Activation: NONE",active; positive
same,mutagenic call,"End Point: IN VITRO MICRONUCLEUS, Test System: MCL-5 CELLS, Metabolic Activation: NONE",active; positive
same,mutagenic call,"Test System: AMES SALMONELLA TYPHIMURIUM, Strain/Indicator: TA98, Metabolic Activation: EPITHELIAL CELL-MEDIATED, AROCLOR 1254, Method: PREINCUBATION",active; positive
same,mutagenic call,"Test System: AMES SALMONELLA TYPHIMURIUM, Strain/Indicator: TA98, Metabolic Activation: EPITHELIAL CELL-MEDIATED, NADPH, Method: PREINCUBATION",active; positive
same,mutagenic call,"Test System: AMES SALMONELLA TYPHIMURIUM, Strain/Indicator: TA98, Metabolic Activation: EPITHELIAL CELL-MEDIATED, Method: PREINCUBATION",active; positive
same,mutagenic call,"Test System: AMES SALMONELLA TYPHIMURIUM, Strain/Indicator: TA98, Metabolic Activation: HAMSTER, LIVER, S-9, Method: MICROSUSPENSION",active; positive
same,mutagenic call,"Test System: AMES SALMONELLA TYPHIMURIUM, Strain/Indicator: TA98, Metabolic Activation: HAMSTER, LUNG, S-9, Method: MICROSUSPENSION",inactive; negative
same,mutagenic call,"Test System: AMES SALMONELLA TYPHIMURIUM, Strain/Indicator: TA98, Metabolic Activation: HAMSTER, TRACHEA, S-9, Method: MICROSUSPENSION",active; positive
same,mutagenic call,"Test System: AMES SALMONELLA TYPHIMURIUM, Strain/Indicator: TA98, Metabolic Activation: HUMAN LIVER, S-9, Method: STANDARD PLATE",active; positive
same,mutagenic call,"Test System: AMES SALMONELLA TYPHIMURIUM, Strain/Indicator: TA98, Metabolic Activation: HUMAN, LIVER, S-9, Method: STANDARD PLATE",active; positive
same,mutagenic call,"Test System: AMES SALMONELLA TYPHIMURIUM, Strain/Indicator: TA98, Metabolic Activation: KUPFFER CELL-MEDIATED, AROCLOR 1254, Method: PREINCUBATION",active; positive
same,mutagenic call,"Test System: AMES SALMONELLA TYPHIMURIUM, Strain/Indicator: TA98, Metabolic Activation: KUPFFER CELL-MEDIATED, NADPH, Method: PREINCUBATION",active; positive
same,mutagenic call,"Test System: AMES SALMONELLA TYPHIMURIUM, Strain/Indicator: TA98, Metabolic Activation: KUPFFER CELL-MEDIATED, Method: PREINCUBATION",active; positive
same,mutagenic call,"Test System: AMES SALMONELLA TYPHIMURIUM, Strain/Indicator: TA98, Metabolic Activation: NONE, Method: MICROSUSPENSION",active; positive
same,mutagenic call,"Test System: AMES SALMONELLA TYPHIMURIUM, Strain/Indicator: TA98, Metabolic Activation: NONE, Method: PREINCUBATION",inactive; negative
same,mutagenic call,"Test System: AMES SALMONELLA TYPHIMURIUM, Strain/Indicator: TA98, Metabolic Activation: NONE, Method: STANDARD PLATE",active; positive
same,mutagenic call,"Test System: AMES SALMONELLA TYPHIMURIUM, Strain/Indicator: TA98, Metabolic Activation: PARENCHYMAL CELL-MEDIATED, AROCLOR 1254, Method: PREINCUBATION",active; positive
same,mutagenic call,"Test System: AMES SALMONELLA TYPHIMURIUM, Strain/Indicator: TA98, Metabolic Activation: PARENCHYMAL CELL-MEDIATED, NADPH, Method: PREINCUBATION",active; positive
same,mutagenic call,"Test System: AMES SALMONELLA TYPHIMURIUM, Strain/Indicator: TA98, Metabolic Activation: PARENCHYMAL CELL-MEDIATED, Method: PREINCUBATION",inactive; negative
same,mutagenic call,"Test System: AMES SALMONELLA TYPHIMURIUM, Strain/Indicator: TA98, Metabolic Activation: RABBIT, LIVER, S-9, Method: MICROSUSPENSION",active; positive
same,mutagenic call,"Test System: AMES SALMONELLA TYPHIMURIUM, Strain/Indicator: TA98, Metabolic Activation: RABBIT, LUNG, S-9, Method: MICROSUSPENSION",active; positive
same,mutagenic call,"Test System: AMES SALMONELLA TYPHIMURIUM, Strain/Indicator: TA98, Metabolic Activation: RABBIT, TRACHEA, S-9, Method: MICROSUSPENSION",active; positive
same,mutagenic call,"Test System: AMES SALMONELLA TYPHIMURIUM, Strain/Indicator: TA98, Metabolic Activation: RAT LIVER S-9, DELOR 103, Method: STANDARD PLATE",active; positive
same,mutagenic call,"Test System: AMES SALMONELLA TYPHIMURIUM, Strain/Indicator: TA98, Metabolic Activation: RAT LIVER S-9, DELOREM 103, Method: STANDARD PLATE",active; positive
same,mutagenic call,"Test System: AMES SALMONELLA TYPHIMURIUM, Strain/Indicator: TA98, Metabolic Activation: RAT, LIVER, MICROSOMES, PHENOBARBITAL, Method: STANDARD PLATE",active; positive
same,mutagenic call,"Test System: AMES SALMONELLA TYPHIMURIUM, Strain/Indicator: TA98, Metabolic Activation: RAT, LIVER, S-9, ACRYLAMIDE, Method: STANDARD PLATE",active; positive
same,mutagenic call,"Test System: AMES SALMONELLA TYPHIMURIUM, Strain/Indicator: TA98, Metabolic Activation: RAT, LIVER, S-9, AROCLOR 1254, Method: PREINCUBATION",active; positive
same,mutagenic call,"Test System: AMES SALMONELLA TYPHIMURIUM, Strain/Indicator: TA98, Metabolic Activation: RAT, LIVER, S-9, AROCLOR 1254, Method: STANDARD PLATE",active; positive
same,mutagenic call,"Test System: AMES SALMONELLA TYPHIMURIUM, Strain/Indicator: TA98, Metabolic Activation: RAT, LIVER, S-9, PHENOBARBITAL, Method: STANDARD PLATE",active; positive
same,mutagenic call,"Test System: AMES SALMONELLA TYPHIMURIUM, Strain/Indicator: TA98, Metabolic Activation: RAT, LIVER, S-9, Method: MICROSUSPENSION",active; positive
same,mutagenic call,"Test System: AMES SALMONELLA TYPHIMURIUM, Strain/Indicator: TA98, Metabolic Activation: RAT, LUNG, S-9, Method: MICROSUSPENSION",inactive; negative
same,mutagenic call,"Test System: AMES SALMONELLA TYPHIMURIUM, Strain/Indicator: TA98, Metabolic Activation: RAT, TRACHEA, S-9, Method: MICROSUSPENSION",inactive; negative
same,mutagenic call,"Test System: AMES SALMONELLA TYPHIMURIUM, Strain/Indicator: TA100, Metabolic Activation: HUMAN LIVER, S-9, Method: STANDARD PLATE",active; positive
same,mutagenic call,"Test System: AMES SALMONELLA TYPHIMURIUM, Strain/Indicator: TA100, Metabolic Activation: HUMAN, LIVER, S-9, Method: STANDARD PLATE",active; positive
same,mutagenic call,"Test System: AMES SALMONELLA TYPHIMURIUM, Strain/Indicator: TA100, Metabolic Activation: HUMAN, PLACENTAL MICROSOMES, Method: PREINCUBATION",active; positive
